Columns and labels:
human myoblast cells = assay: Differentiation of human myoblast cells (MyHC immunostaining, percentage area); type: cell-based; settings: Fc4 fusions, 96 hours with daily media change, concentration not printed (FIG. 1B)
Protocol: (§1) FIG. 1A: The suspension CHO cells were transiently transfected with the IGF2-hFcm encoding plasmid. IGF2-hFcm was affinity-purified by Protein A membrane column. The purified IGF2-hFcm was added into the culture of human myoblast cells for 96 hours. Myosin heavy chain (MyHC) was immunostained and imaged by a fluorescence microscope.
as §1, with “1B:” for “1A:”, “IGF2-LhFc4” for “IGF2-hFcm”, “hours with daily media change.” for “hours.”
FIG. 2A: The suspension CHO cells were transiently transfected with the HSA-L-IGF2R61A encoding plasmid. HSA-L-IGF2R61A was affinity-purified by Protein A membrane column. […] Myosin heavy chain (MyHC) was immunostained and imaged by a fluorescence microscope.
Suspension CHO cells were transiently transfected with the IGF2-hFcm encoding plasmid. […] After quantification of the stained MyHC, the percentage area of MyHC was calculated as the percent of pixels within the field that are illuminated above background in the stained channel. […] Significance was determined by a p-value less than 0.05 by the one-way ANOVA Tukey Honest Significant Difference test.

[1] = test system: female C57/BL6 (NIA) mice (20 months of age); assay: Acute injury model (cardiotoxin in tibialis anterior); type: in vivo; settings: IM 0.4 ug/20 μL every other day, vs vehicle (HSA)
Protocol: The acute injury model of Example 18 was used. […] female C57/BL6 (NIA) mice (20 months of age) were injected intramuscularly (IM) in each tibialis anterior with cardiotoxin at day one (10 ug/20 μL) and from day two the mice were given IM injections every other day with 0.4 ug/20 μL of 6HIS-HSA-IGF2R61A (SEQ ID NO: 34) or vehicle (0.4 ug/20 μL of HSA).

[2] = test system: healthy human muscle precursors from person; assay: In vitro myogenesis assay, healthy human muscle precursors; type: cell-based
Protocol: (§2) Human muscle progenitor cells (early passage myoblasts) were cultured and expanded in growth medium: Ham's F-10 (Gibco), 20% Bovine Growth Serum (Hyclone), 5 ng/mL FGF2 and 1% penicillin-streptomycin on Matrigel coated plates (1:300 matrigel: PBS), at 37° C. and 5% CO2. For experimental conditions, cells were plated at 40,000 cells/well on Matrigel coated 8-well chamber slides in 250-500 μL medium per well (1:100 matrigel: PBS) in human fusion medium: DMEM (Gibco)+2% horse serum (Hyclone). One hour after plating, human myoblasts were treated with 50% respective media: […] myoblasts were cultured for 24 hours in the above conditions, at 37° C. in 10% CO2 incubator. BrdU (300 uM) in DMSO was added for 2 hours prior to fixation with cold 70% ethanol and stored at 4° C. until staining.
(§3) Following permeabilization in PBS+0.25% t-Octylphenoxypolyethoxyethanol (Triton™ X-100), antigen retrieval was performed. Primary staining was performed with primary antibodies including: a species-specific monoclonal antibody for mouse anti-embryonic Myosin Heavy Chain (eMyHC, hybridoma clone 1.652, Developmental Studies Hybridoma Bank) and Rat-anti-BrdU (Abcam Inc. ab6326). […]

[3] = test system: human DM1 muscle precursors from person; assay: In vitro myogenesis assay, human DM1 muscle precursors; type: cell-based; settings: across a range of test article concentrations
Protocol: as §2, §3

[4] = Murine pharmacokinetics, intravenous, ELISA, non-compartment analysis; type: in vivo, mice; settings: mice
Protocol: Murine pharmacokinetics (PK) represents the absorption, distribution, metabolism, and elimination of drugs from the body. The pharmacokinetic profile of the therapeutic polypeptides were determined in mice (10-12 weeks old). Mice were fed ad libitum and housed under controlled conditions of lighting (12-hour light/12-hour dark) and temperature (22-24° C.). Mice were allowed to acclimate for 3 days prior to the initiation of the experiment. Intravenous (IV) injection in 10-12 weeks old mice. Engineered mitogenic polypeptides concentrations in the samples were measured by ELISA. Various pharmacokinetics will be calculated as well as the absorption/elimination dynamics following different routes of administration.

DM1 human myoblast = assay: Myogenic gene expression fold change in DM1 human myoblast; type: cell-based; settings: 48 h; BMP7 50 ng/mL, Butyrate 100 nM, IGF2 200 ng/mL
Protocol: Myoblasts were cultured 48 h in the presence of factors (BMP7 50 ng/mL, Butyrate 100 nM, IGF2 200 ng/mL).
Myoblasts were cultured 96 h in the presence of factors (IGF2 200 ng/ml). […] Myoblasts were cultured 48 h in the presence of factors (IGF2 200 ng/mL).
IGF2 was tested individually for its ability to promote proliferation and/or fusion of human muscle progenitor cells from an individual with myotonic dystrophy type 1 (hMD)—a muscular dystrophy caused by mutations in the DMPK1 gene. The effect of IGF2 on myogenic activity was assayed in biological triplicate across a range of concentrations centered around expected physiological levels by adding each factor to hMD myoblasts for 72 hours with daily media changes (DMEM +2% horse serum) and a second pulse of factors at the first media change. After 72 or 96 hours, cells were pulsed for 2-5 hours with EdU (30 uM), ethanol fixed, stained with Hoescht 3342, immunostained for proliferation—as measured by the percent of cells staining positive for EdU (% EdU)-, and immunostained for differentiation—as measured by the increase in cellular area staining positive for embryonic myosin heavy chain (% eMyHC) relative to the negative controls, which received media and vehicle only. Wells were imaged on a Keyence BZ-100 at 4×, the images quantified in Cell Profiler, and the statistics were computed in R. Additionally, RNA was extracted from myoblast and select transcript abundances quantified by qPCR.

Molecule: IGF2-hFc4: Human IGF2-hFc4, SEQ ID NO: 39
- % MyHC (human myoblast cells): 6.901%

Molecule: HSA-IGF2R61A: His tagged HSA fusion IGF2 R61A mutant with a long linker, SEQ ID NO: 34
- force production (max contraction rate) [1]: increased force production
- force production (specific force-frequency) [1]: increased force production
- muscle fatigue (specific fatigue index) [1]: reduced muscle fatigue
- muscle mass [1]: increased muscle mass
- regenerative index (number of new fibers per square millimeter) [1]: increased regenerative index
- relation rates [1]: improved relation rates
- activity relative to IGF2 at equimolar concentrations ([2]; across a range of test article concentrations): equal activity
- activity relative to HSA-IGF2 at equimolar concentrations ([2]; before or after size exclusion purification via HPLC): equal or increased activity
- activity relative to IGF2 at equimolar concentrations [3]: equal activity
- serum half-life compared to the natural sequence of IGF2 [4]: significantly improved serum half-life

Molecule: CCCC(=O)[O-].[Na+] [NaBut, sodium butyrate]
- MYF5 expression fold change compared to FM (vehicle) (DM1 human myoblast): 1.128
- MYOD1 expression fold change compared to FM (vehicle) (DM1 human myoblast): 1.095
- MYOG expression fold change compared to FM (vehicle) (DM1 human myoblast): 1.020
